In patent publication US12172983B2, “EGFR inhibitors” (Blueprint Medicines Corporation, priority 2019, dated 2024) one finds IC50 data, which are given here for 13 molecules.

Experiment [1] concerns phosphorylation of EGFR (Tyr1068) in NCI-H1975 cell line that harbors the EGFR L858R T790M mutations. Put plainly: NCI-H1975 pEGFR AlphaLISA assay. Type of experiment: cell-based. The conditions noted are these: 4-5 hours incubation, read-out: Ext pEGFR H1975. The gist of the method: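 NCI-H1975 cells (EGFR L858R/T790M) seeded overnight, then treated with compound for 4-5 h at 37 °C/5% CO2. After lysis, p-EGFR (Tyr1068) quantified by AlphaLISA SureFire Ultra with acceptor then donor beads; IC50 fitted from percent inhibition versus log concentration.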
A general note: Bead proximity is the source of the signal in Alpha formats.

For a further experiment, the target named is T1, EGFR (L858R T790M C797S) (Homo sapiens, UniProt P00533, C797S/L858R/T790M).
T1 construct: purchased SignalChem E10-122VG
Description: Biochemical EGFR inhibition assay (Caliper mobility shift), EGFR LRTMCS mutant. The conditions noted are these: inhibitory activity against EGFR LRTMCS mutant; apparent IC50; read-out: Ext Enz LRTMCS. In outline: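 Each enzyme was allowed to phosphorylate 10–20% of its peptide at 25° C. before EDTA (35 mM) quench. Separated substrate and product peaks were measured by mobility shift, giving apparent IC50 values.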

The mark [2] stands for this setting: Homo sapiens, NCI-H1975, inhibition of phosphorylation of mutant EGFR in NCI-H1975 cells.

Molecules are shown by their SMILES. pIC50: −log10 of the molar value. Like-named read-outs stand apart in the source and are kept apart here.

T1 sequence (P00533 25-1210 T790M/C797S/L858R): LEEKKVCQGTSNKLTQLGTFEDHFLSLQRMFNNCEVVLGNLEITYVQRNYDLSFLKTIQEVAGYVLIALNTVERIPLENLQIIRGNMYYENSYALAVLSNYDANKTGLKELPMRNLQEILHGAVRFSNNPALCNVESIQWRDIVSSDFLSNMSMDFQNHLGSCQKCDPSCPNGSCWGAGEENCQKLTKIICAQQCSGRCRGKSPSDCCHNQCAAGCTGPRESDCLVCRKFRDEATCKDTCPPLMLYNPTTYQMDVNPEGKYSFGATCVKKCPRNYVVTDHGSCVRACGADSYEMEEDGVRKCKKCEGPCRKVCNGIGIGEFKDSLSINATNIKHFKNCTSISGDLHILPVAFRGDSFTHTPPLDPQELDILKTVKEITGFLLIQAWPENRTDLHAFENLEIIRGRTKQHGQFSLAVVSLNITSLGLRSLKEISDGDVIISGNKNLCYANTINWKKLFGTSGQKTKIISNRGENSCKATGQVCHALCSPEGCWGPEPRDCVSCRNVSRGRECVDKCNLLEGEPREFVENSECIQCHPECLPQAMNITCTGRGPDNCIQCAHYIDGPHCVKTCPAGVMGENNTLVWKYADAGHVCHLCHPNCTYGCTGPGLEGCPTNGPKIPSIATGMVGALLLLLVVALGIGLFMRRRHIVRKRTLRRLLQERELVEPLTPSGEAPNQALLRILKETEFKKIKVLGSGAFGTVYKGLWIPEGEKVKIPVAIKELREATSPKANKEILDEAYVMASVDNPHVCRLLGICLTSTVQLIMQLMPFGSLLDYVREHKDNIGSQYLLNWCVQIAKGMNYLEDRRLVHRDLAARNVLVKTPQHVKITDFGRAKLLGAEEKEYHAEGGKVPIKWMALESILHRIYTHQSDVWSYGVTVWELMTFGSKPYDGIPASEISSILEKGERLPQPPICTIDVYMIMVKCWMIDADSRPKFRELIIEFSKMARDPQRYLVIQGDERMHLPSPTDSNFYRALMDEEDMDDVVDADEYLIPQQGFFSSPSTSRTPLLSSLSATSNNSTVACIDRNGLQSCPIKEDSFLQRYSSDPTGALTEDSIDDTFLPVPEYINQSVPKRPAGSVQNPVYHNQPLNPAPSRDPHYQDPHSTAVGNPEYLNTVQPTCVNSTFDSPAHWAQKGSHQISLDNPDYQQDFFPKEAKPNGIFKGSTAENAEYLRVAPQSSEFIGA

As to `CC(C)c1ccc(N2C[C@H](CS(C)(=O)=O)[C@H]2C)c2cnc(Nc3ccnc(N4CC[C@H](N)C(F)(F)C4)n3)cc12` (single isomer, unassigned) [Compound 151, N-{2-[(4S)-4-amino-3,3-difluoropiperidin-1-yl]pyrimidin-4-yl}-8-[(2R,3S)-3-(methanesulfonylmethyl)-2-methylazetidin-1-yl]-5-(propan-2-yl)isoquinolin-3-amine or N-{2-[(4R)-4-amino-3,3-difluoropiperidin-1-yl]pyrimidin-4-yl}-8-[(2R,3S)-3-(methanesulfonylmethyl)-2-methylazetidin-1-yl]-5-(propan-2-yl)isoquinolin-3-amine], the pIC50 was not below 8.00 in experiment [1] (setting [2]) and not below 7.82 at EGFR (L858R T790M C797S).

As to `CC(C)c1ccc(N2C[C@H](CS(C)(=O)=O)[C@H]2C)c2cnc(Nc3ccnc(N4CCC(N)C(F)(F)C4)n3)cc12` (single isomer, unassigned) [Compound 152, N-(2-((R)-4-amino-3,3-difluoropiperidin-1-yl)pyrimidin-4-yl)-5-isopropyl-8-((2R,3S)-2-methyl-3-(methylsulfonylmethyl)azetidin-1-yl(isoquinolin-3-amine or N-(2-((S)-4-amino-3,3-difluoropiperidin-1-yl)pyrimidin-4-yl)-5-isopropyl-8-((2R,3S)-2-methyl-3-((methylsulfonyl)methyl)azetidin-1-yl)isoquinolin-3-amine], the pIC50 in experiment [1] (setting [2]) was not below 8.00; on EGFR (L858R T790M C797S), not below 7.82.

For `CC(C)c1ccc(N2CC(CS(C)(=O)=O)C2)c2cnc(Nc3ccnc(N4CC[C@](C)(O)C(F)(F)C4)n3)cc12` (single isomer, unassigned) [Compound 153, (4S)-3,3-difluoro-1-[4-({8-[3-(methanesulfonylmethyl)azetidin-1-yl]-5-(propan-2-yl)isoquinolin-3-yl}amino)pyrimidin-2-yl]-4-methylpiperidin-4-ol or (4R)-3,3-difluoro-1-[4-({8-[3-(methanesulfonylmethyl)azetidin-1-yl]-5-(propan-2-yl)isoquinolin-3-yl}amino)pyrimidin-2-yl]-4-methylpiperidin-4-ol], the pIC50 was 7.70 to 8.00 in experiment [1] (setting [2]) and not below 7.82 on EGFR (L858R T790M C797S).

In the case of `CC(CF)c1ccc(N2CC(CS(C)(=O)=O)C2)c2cnc(Nc3ccnc(N4CC[C@@H](O)[C@@](C)(F)C4)n3)cc12` (single isomer, unassigned) [Compound 154], the pIC50 was 7.52 to 7.70 in experiment [1] (setting [2]) and not below 7.82 on EGFR (L858R T790M C797S).

With `CC(C)c1ccc(N2CC(CS(C)(=O)=O)C2)c2cnc(Nc3ccnc(N4C[C@@H](F)[C@@H](O)[C@@](C)(F)C4)n3)cc12` (single isomer, unassigned) [Compound 155, (3S,4R,5R)-3,5-difluoro-1-[4-({8-[3-(methanesulfonylmethyl)azetidin-1-yl]-5-(propan-2-yl)isoquinolin-3-yl}amino)pyrimidin-2-yl]-3-methylpiperidin-4-ol or (3R,4S,5S)-3,5-difluoro-1-[4-({8-[3-(methanesulfonylmethyl)azetidin-1-yl]-5-(propan-2-yl)isoquinolin-3-yl}amino)pyrimidin-2-yl]-3-methylpiperidin-4-ol], the pIC50 in experiment [1] (setting [2]) is not below 8.00; at EGFR (L858R T790M C797S), not below 7.82.

Turning to `CC(C)c1ccc(N2CC(CS(C)(=O)=O)C2)c2cnc(Nc3ccnc(N4C[C@@H](F)[C@@H](O)[C@](C)(F)C4)n3)cc12` (single isomer, unassigned) [Compound 156, (3R,4R,5R)-3,5-difluoro-1-[4-({8-[3-(methanesulfonylmethyl)azetidin-1-yl]-5-(propan-2-yl)isoquinolin-3-yl}amino)pyrimidin-2-yl]-3-methylpiperidin-4-ol or (3S,4S,5S)-3,5-difluoro-1-[4-({8-[3-(methanesulfonylmethyl)azetidin-1-yl]-5-(propan-2-yl)isoquinolin-3-yl}amino)pyrimidin-2-yl]-3-methylpiperidin-4-ol], the pIC50 in experiment [1] (setting [2]) was not below 8.00; at EGFR (L858R T790M C797S), not below 7.82.

Consider `CC(C)c1cc(F)c(N2CC(CS(C)(=O)=O)C2)c2cnc(Nc3ccnc(N4CC[C@@H](O)[C@@](C)(F)C4)n3)cc12` (single isomer, unassigned) [Compound 157], for which the values for the pIC50 (in experiment [1] (setting [2]); at EGFR (L858R T790M C797S)) were not below 8.00 and not below 7.82, respectively.

On to `CO[C@H]1CCN(c2nccc(Nc3cc4c(C(C)C)ccc(N5CC(CS(C)(=O)=O)C5)c4cn3)n2)CC1(F)F` (single isomer, unassigned) [Compound 158], for which the pIC50 was 7.70 to 8.00 in experiment [1] (setting [2]) and 7.70 to 7.82 on EGFR (L858R T790M C797S).

With `CO[C@@H]1CCN(c2nccc(Nc3cc4c(C(C)C)ccc(N5CC(CS(C)(=O)=O)C5)c4cn3)n2)CC1(F)F` (single isomer, unassigned) [Compound 159], the pIC50 was 7.52 to 7.70 in experiment [1] (setting [2]) and 7.70 to 7.82 on EGFR (L858R T790M C797S).

`CCS(=O)(=O)CC1CN(c2ncc(C(C)C)c3cc(Nc4ccnc(N5CCN[C@@H](C(F)F)C5)n4)ncc23)C1` (single isomer, unassigned) [Compound 160, N-{2-[(3R)-3-(difluoromethyl)piperazin-1-yl]pyrimidin-4-yl}-8-{3-[(ethanesulfonyl)methyl]azetidin-1-yl}-5-(propan-2-yl)-2,7-naphthyridin-3-amine or N-{2-[(3S)-3-(difluoromethyl)piperazin-1-yl]pyrimidin-4-yl}-8-{3-[(ethanesulfonyl)methyl]azetidin-1-yl}-5-(propan-2-yl)-2,7-naphthyridin-3-amine]: the pIC50 in experiment [1] (setting [2]) is 7.30 to 7.52; on EGFR (L858R T790M C797S), 7.70 to 7.82.

For `[2H]C([2H])([2H])O[C@@H]1CCN(c2nccc(Nc3cc4c(C(C)C)ncc(N5C[C@H](CS(C)(=O)=O)[C@H]5C)c4cn3)n2)C[C@@H]1F` (single isomer, unassigned) [Compound 161, N-{2-[(3S,4R)-3-fluoro-4-(^2H3)methoxypiperidin-1-yl]pyrimidin-4-yl}-8-[(2R,3S)-3-(methanesulfonylmethyl)-2-methylazetidin-1-yl]-5-(propan-2-yl)-2,6-naphthyridin-3-amine or N-{2-[(3R,4S)-3-fluoro-4-(^2H3)methoxypiperidin-1-yl]pyrimidin-4-yl}-8-[(2R,3S)-3-(methanesulrfonylmethyl)-2-methylazetidin-1-yl]-5-(propan-2-yl)-2,6-naphthyridin-3-amine], the values for the pIC50 (in experiment [1] (setting [2]); on EGFR (L858R T790M C797S)) were not below 8.00 and not below 7.82, respectively.

With `[2H]C([2H])([2H])O[C@@H]1CCN(c2nccc(Nc3cc4c(C(C)C)ncc(N5C[C@H](CS(C)(=O)=O)[C@H]5C)c4cn3)n2)C[C@@H]1F` (single isomer, unassigned) [Compound 162, N-{2-[(3R,4S)-3-fluoro-4-(^2H3)methoxypiperidin-1-yl]pyrimidin-4-yl}-8-[(2R,3S)-3-(methanesulfonylmethyl)-2-methylazetidin-1-yl]-5-(propan-2-yl)-2,6-naphthyridin-3-amine or N-{2-[(3S,4R)-3-fluoro-4-(^2H3)methoxypiperidin-1-yl]pyrimidin-4-yl}-8-[(2R,3S)-3-(methanesulfonylmethyl)-2-methylazetidin-1-yl]-5-(propan-2-yl)-2,6-naphthyridin-3-amine], the pIC50 in experiment [1] (inhibition of phosphorylation of mutant EGFR in NCI-H1975 cells) is not below 8.00; on EGFR (L858R T790M C797S) it was not below 7.82.

For `CC(CF)c1cnc(N2CC(CS(C)(=O)=O)C2)c2cnc(Nc3ccnc(N4CC[C@@H](O)[C@@](C)(F)C4)n3)cc12` (single isomer, unassigned) [Compound 163], the pIC50 in experiment [1] (setting [2]) was 7.30 to 7.52; at EGFR (L858R T790M C797S) it was not below 7.82.
